Experimental data reported in US6060568A, “Carbene transition metal catalysts” (The Governors of the University of Alberta, priority 1999, dated 2000).

Experiments:
[1] = Solution phase ethylene polymerization, semi-batch reactor (SBR)
Experimental: (§1) All the solution polymerization experiments described below were conducted using an Autoclave Engineers Zipperclave reactor (500 mL). All the chemicals (solvent, catalyst and cocatalyst) were fed into the reactor batchwise except ethylene which was fed on demand. No product was removed during the polymerization reaction. As are known to those skilled in the art, all the feed streams were purified prior to feeding into the reactor by contact with various absorption media to remove catalysts killing impurities such as water, oxygen, sulfur and polar materials. All components were stored and manipulated under an atmosphere of purified argon or nitrogen. The reactor uses a programmable logical control (PLC) system with Wonderware 5.1 s, oftware for the process control. Ethylene polymerizations were performed in the reactor equipped with an air driven stirrer and an automatic temperature control system.
The catalyst was dissolved in toluene. The polymerization reaction time is typically 10 minutes. The reaction was terminated by adding 5 mL of methanol to the reactor and the polymer was recovered by evaporation of the solvent. The polymerization activities were calculated based on the ethylene consumption.
Examples 1-18 were conducted on a solution semi-batch reactor (SBR).
SBR Experimental Conditions with MAO Activation
Catalyst Concentration 200 μmol/L
PMAO-IP Al/Zr = 300 (mol/mol)
Reaction Temperature 160° C.
Reactor Pressure 140 psig total
Stirring Speed 2000 rpm
SBR Experirimental Conditions with Trinitylborate Activation
PMAO-IP 1 mmol/L as impurity scavenger
^a SBR standard MAO screening conditions.
^b Insitu alkylation: PMAOIP (Al/M = 20) premixed with catalyst, the
mixture and tritylborate solution were injected into the reactor
^c SBR standard trityl borate screening conditions.
^d Premix catalyst and cocatalyst.
^e Zr(Bz)4 as scavenger at 1.2 mmol/L. […]

[2] = Low temperature and pressure slurry polymerization on catalyst screening unit (CSU); conditions: 10 psig
Experimental: Low pressure and temperature slurry polymerization experiments were conducted on a catalyst screening unit (CSU) where polymerization occurs in a cyclohexane reaction media, ethylene is fed to the reactor on demand and is monitored by a mass flow meter. On the CSU, reaction temperatures are monitored and controlled by thermocouples and one RTD. Reactor temperature control is maintained by a HAAKE circulating water bath which has external thermostatic control via the thermocouple at the reactor core. Reactor temperature is maintained by the water from the bath entering the jacket-like coolant chamber surrounding the reactor. Reaction pressures are indicated by mechanical pressure gauges and monitored manually.
The CSU shares the purified ethylene and cyclohexane feeds with the solution semi-batch reactor (SBR). Ultra-High-Purity argon from PRAXAIR which is purified further by 13× and OXICLEAR on a separate gas purification unit is used for reactor system purging and solvent sparging. The polymerization products are quantitatively recovered for mass determination, and polymerization activities are then calculated based upon mass of product, millimoles of catalyst injected and reaction time.
Examples 25-32 were conducted on a catalyst screening unit (CSU).
Catalyst Concentration 50 μmol/L (Zr)
Catalyst Mole Ratio Al/Zr = 500/1
Polymethylaluminoxane (PMAO-IP)
Reaction Temperature Setpoint 35° C.
Reactor Pressure Setpoint 10 psig total
Stirring Speed ~2250 +/- 300 rpm Initially
Catalyst Concentration 50 μmol/L (M)
Catalyst Mole Ratio Al/B/M = 20/1.05/1
Modified Methylaluminoxane (MMAO-

[3] = Gas phase polymerization, supported catalyst, semi-batch gas phase reactor; conditions: 200 psig, 90° C., 60 minutes; for Yield PE: 50-54 mg supported catalyst
From the text: The catalyst preparation methods described below employ typical techniques for the syntheses and handling of air-sensitive materials. Standard Schlenk and drybox techniques were used in the preparation of ligands, metal complexes, support substrates and supported catalyst systems. Solvents were purchased as anhydrous materials and further treated to remove oxygen and polar impurities by contact with a combination of activated alumina, molecular sieves and copper oxide on silica/alumina. Where appropriate, elemental compositions of the supported catalysts were measured by Neutron Activation analysis and a reported accuracy of ±1% (weight basis).
The supported catalysts were prepared by initially supporting MAO on a silica support, followed by deposition of the catalyst component.
(§2) All the polymerization experiments described below were conducted using a semi-batch, gas phase polymerization reactor of total internal volume of 2.2 L. Reaction gas mixtures, including ethylene were measured to the reactor on a continuous basis using a calibrated thermal mass flow meter, following passage through purification media as described above. A pre-determined mass of the catalyst sample was added to the reactor under the flow of the inlet gas with no pre-contact of the catalyst with any reagent, such as a catalyst activator. The catalyst was activated in situ (in the polymerization reactor) at the reaction temperature in the presence of the monomer, using a metal alkyl complex which has been previously added to the reactor to remove adventitious impurities. Purified and rigorously anhydrous sodium chloride was used as a catalyst dispersing agent.
The internal reactor temperature is monitored by a thermocouple in the polymerization medium and can be controlled at the required set point to +/-1.0° C. The duration of the polymerization experiment was one hour. Following the completion of the polymerization experiment, the polymer was separated from the sodium chloride and the yield determined. The following table illustrates bench scale gas phase reaction conditions.
Solvent 5-10 mL hexane added with catalyst
Operating Mode Gas Phase
(§3) Aluminum alkyl 25-30 wt. % triisobutyl aluminum
(§4) Reaction Pressure 200 psig
(§5) Reaction Temperature 90° C.
(§6) Reaction Time 60 minutes
Examples 19-22 are examples of the gas phase polymerization. The next table illustrates data concerning the Al/transition metal ratios of the supported catalyst, polymer yield and polymer properties.

[4] = High temperature and pressure slurry polymerization, supported catalyst; conditions: slurry in hexane, 200 psig, 90° C., 60 minutes
Experimental: The supported catalyst described in Part B was also used for the slurry polymerization tests.
as §2, with “a semi-batch” for “a semi-batch, gas phase polymerization”, “sample as” for “sample was”, “complex and solvent” for “complex”, “which have” for “which has”, “impurities.” for “impurities. Purified and rigorously anhydrous sodium chloride was used as a catalyst dispersing agent.”
The internal reactor temperature is monitored by a thermocouple in the polymerization medium and can be controlled at the required set point to +/-1.0° C. The duration of the polymerization experiment was one hour. Following the completion of the polymerization experiment, the slurry was transferred from the reactor to a bowl, and the solvent was left to evaporate. The following table illustrates bench scale slurry phase reaction conditions.
Operating Mode Slurry Phase
as §3, §4, §5, §6
Examples 23-24 are high pressure and temperature slurry polymerization examples. The next table illustrates data concerning the Al/transition metal ratios of the supported catalyst; polymer yield and polymer properties.

[5] = Solution phase copolymerization of ethylene with 1-octene, semi-batch reactor (SBR); conditions: [CPh3 ][B(C6 F5)4 ]; copolymerization with 20 mL of 1-octene; based on polymer weight
Experimental: Polymer molecular weights and molecular weight distributions were measured by GPC (Waters 150-C) at 140° C. in 1,2,4-trichlorobenzene calibrated using polyethylene standards.
as §1
The catalyst was dissolved in toluene. The polymerization reaction time is typically 10 minutes. […] The polymerization activities were calculated based on the ethylene consumption. […]
were calculated based on polymer weight. 20.7 Br/1000 C detected by NMR […]

[6] = SBR standard MAO screening: PMAO-IP, Al/Zr = 300, 160° C., 140 psig
[7] = [CPh3 ][B(C6 F5)4 ], in situ alkylation, PMAO-IP (Al/M = 20) premixed with catalyst, 160° C.
[8] = SBR standard trityl borate screening: [CPh3 ][B(C6 F5)4 ], 160° C., 140 psig
[9] = MMAO-7/[CPh3 ][B(C6 F5)4 ], Al/B/M = 20/1.05/1, 35° C.

Compound | Activity [1, 6] [gPE/mmol cat*hr] | Activity ([2]; PMAO-IP, Al/Zr = 500/1, 35° C.) [gPE/mmol cat*hr] | Activity [1, 8] [gPE/mmol cat*hr] | Yield per catalyst [3] [gPE/g Catalyst] | Yield per metal [3] [gPE/g Metal] | Yield PE [3] [g] | also measured
[ZrCl2 {C(Cy2 =NSiMe3)2 }] [Zr-3C] | 22.7 | 0 |  |  |  |  | Activity [1, 7]: 70.6 gPE/mmol cat*hr
[ZnMe{HC(Ph2 P=NSiMe3)2 }] [AK-17] |  |  | 89.78 | 0 | 0 | 0 | Activity [2, 9]: 4 gPE/mmol cat*hr
[ZrCl2 {C(Ph2 P=NSiMe3)2 }] [Zr-3D] | 14.2 | 1 |  | 0 | 0 | 0 | Yield per catalyst [4]: 4 gPE/g Catalyst; Yield per metal [4]: 915 gPE/g Metal; Yield PE ([4]; 122-137 mg supported catalyst): 0.6 g
[ZrCl2 {(C(O)(NAd))C(Ph2 P=NSiMe3)2 }] [KB-103] | 129.0 | 0 |  | 8 | 1607 | 0.4 | Activity [1, 7]: 498.7 gPE/mmol cat*hr
[ZrMe2 {C(Cy2 =NSiMe3)2 }] [Zr-3C-Me2] |  |  | 56.8 |  |  |  | Activity [5]: 8.22 gPE/mmol cat*hr; Activity [2, 9]: 29 gPE/mmol cat*hr
[Zr{C(Ph2 P=NSimMe3)2 }(CH2 C6 H5)2 ] [Zr-6D] |  | 13 | 11.6 |  |  |  | Activity ([1]; [CPh3 ][B(C6 F5)4 ], Zr(Bz)4 as scavenger at 1.2 mmol/L, 160° C.): 14.4 gPE/mmol cat*hr; Activity ([1]; [CPh3 ][B(C6 F5)4 ], premix catalyst and cocatalyst, 160° C.): 42.7 gPE/mmol cat*hr; Activity ([1]; cocatalyst B(C6 F5)3, footnote c standard trityl borate screening conditions, 160° C.): 9.12 gPE/mmol cat*hr; Activity [5]: 10.5 gPE/mmol cat*hr
[Cl][Zr+2][Cl].c1cc[cH-]c1.c1cc[cH-]c1 [Cp2 ZrCl2, reference compound] | 1339.9 | 2692 |  |  |  |  | 
